Source: ChEMBL document CHEMBL4028839, “Synthesis of octapeptin C4 and biological profiling against NDM-1 and polymyxin-resistant bacteria” (Bioorg Med Chem Lett, 2017)
Converted amounts (≈) assume the structure as drawn. Bridge positions count the residues as written; N and C are the ends. Square brackets hold non-standard residues; d marks the D form. Peptide text beside a SMILES is read from it. * marks the point of attachment. Decanoyl(3R-OH) = CCCCCCC[C@@H](O)CC(=O)*; dDab = NCC[C@@H](N)C(=O)O; Dab = NCC[C@H](N)C(=O)O

Legend:
[1] = system: Pseudomonas aeruginosa; experiment: Antimicrobial activity against Pseudomonas aeruginosa ATCC 27853 measured after 24 hrs; type: functional
[2] = system: Staphylococcus aureus; experiment: Antimicrobial activity against meticillin-susceptible Staphylococcus aureus ATCC 25923 measured after 24 hrs; type: functional
[3] = system: Escherichia coli; experiment: Antimicrobial activity against Escherichia coli ATCC 25922 measured after 24 hrs; type: functional
[4] = system: Klebsiella pneumoniae; experiment: Antimicrobial activity against Klebsiella pneumoniae ATCC 13883 measured after 24 hrs; type: functional
[5] = system: Klebsiella quasipneumoniae subsp. Similipneumoniae; experiment: (§1) Antimicrobial activity against multi-drug resistant Klebsiella quasipneumoniae subsp. similipneumoniae ATCC 700603 measured after 24 hrs; type: functional
[6] = system: Klebsiella pneumoniae; experiment: Antimicrobial activity against NDM-1 positive Klebsiella pneumoniae BAA-2146 measured after 24 hrs; type: functional
[7] = system: Acinetobacter baumannii; experiment: Antimicrobial activity against Acinetobacter baumannii ATCC 19606 measured after 24 hrs; type: functional
[8] = system: Pseudomonas aeruginosa; experiment: Antimicrobial activity against polymyxin-resistant Pseudomonas aeruginosa clinical isolate FADDI-PA070 measured after 24 hrs; type: functional
[9] = system: Pseudomonas aeruginosa; experiment: Antimicrobial activity against polymyxin-resistant Pseudomonas aeruginosa clinical isolate PA9704 measured after 24 hrs; type: functional
[10] = as §1; type: functional; conditions: ATCC 700603, 24 h
[11] = (§2) Cytotoxicity against HK2 cells after 24 hrs by LDH assay; type: cell-based, HK-2; conditions: human, HK-2 cells
[12] = (§3) Cytotoxicity against human RPTEC after 24 hrs by LDH assay; type: cell-based; conditions: RPTEC cells
[13] = system: HK-2; experiment: as §2; type: cell-based; conditions: human, hk-2, 24 h
[14] = system: RPTEC; experiment: as §3; type: cell-based; conditions: rptec, 24 h
[15] = ATCC 19606 = CIP 70.34 = JCM 6841, 24 h

| Compound | MIC ([1]; ATCC 27853, 24 h) [µg/mL] | MIC ([2]; ATCC 25923, 24 h) [µg/mL] | MIC ([3]; ATCC 25922, 24 h) [µg/mL] | MIC ([4]; ATCC 13883, 24 h) [µg/mL] | MIC [10] [µg/mL] | MIC ([6]; ATCC BAA-2146, 24 h) [µg/mL] | MIC [7, 15] [µg/mL] | MIC ([8]; isolate FADDI-PA070, 24 h) [µg/mL] | MIC ([9]; isolate PA9704, 24 h) [µg/mL] | CC50 at 24 h [11] [µM] | CC50 at 24 h [12] [µM] | other results |
| --- | --- | --- | --- | --- | --- | --- | --- | --- | --- | --- | --- | --- |
| POLYMYXIN B [listing 1 of 2 here] |  |  |  |  |  |  |  |  |  |  |  | MIC [1]: 0.5 µg/mL; MIC [2]: > 64 µg/mL; MIC [3]: 0.25 µg/mL; MIC [4]: 0.25 µg/mL; MIC [5]: 0.25 µg/mL; MIC ([6]; ATCC BAA-2146): 0.25 µg/mL; MIC ([7]; ATCC 19606 = CIP 70.34 = JCM 6841): 0.25 µg/mL; MIC [8]: 32 µg/mL; MIC [9]: 128 µg/mL |
| CCCCCCC[C@@H](O)CC(=O)N[C@H](CCN)C(=O)N[C@@H](CCN)C(=O)N[C@@H](CCN)C(=O)N[C@H](Cc1ccccc1)C(=O)N[C@@H](CC(C)C)C(=O)N[C@@H](CCN)C(=O)N[C@@H](CCN)C(=O)N[C@@H](CC(C)C)C(=O)O [listing 1 of 2 here] | 4 (≈ 3.77 µM) | 32 (≈ 30.1 µM) | 16 (≈ 15.1 µM) | > 32 | 16 (≈ 15.1 µM) | > 32 | > 32 | 32 (≈ 30.1 µM) | > 32 |  |  |  |
| CCCCCCC[C@@H](O)CC(=O)N[C@H](CCN)C(=O)N[C@@H](CCN)C(=O)N[C@@H](CCN)C(=O)N[C@H](Cc1ccccc1)C(=O)N[C@@H](CC(C)C)C(=O)N[C@@H](CCN)C(=O)N[C@@H](CCN)C(=O)N[C@@H](CC(C)C)C(=O)O [listing 2 of 2 here] |  |  |  |  |  |  |  |  |  | 139 | 71 |  |
| CCCCCCC[C@@H](O)CC(=O)N[C@H](CCN)C(=O)N[C@H]1CCNC(=O)[C@H](CC(C)C)NC(=O)[C@H](CCN)NC(=O)[C@H](CCN)NC(=O)[C@H](CC(C)C)NC(=O)[C@@H](Cc2ccccc2)NC(=O)[C@H](CCN)NC1=O ({Decanoyl(3R-OH)}-[dDab][Dab][Dab][dF]L[Dab][Dab]L; lactam 2-C) | 2 (≈ 1.92 µM) | 16 (≈ 15.3 µM) | 4 (≈ 3.83 µM) | 8 (≈ 7.66 µM) | 8 (≈ 7.66 µM) | 8 (≈ 7.66 µM) | 4 (≈ 3.83 µM) | 2 (≈ 1.92 µM) | 2 (≈ 1.92 µM) | 31 | 39 |  |
| POLYMYXIN B [listing 2 of 2 here] |  |  |  |  |  |  |  |  |  |  |  | CC50 [13]: 135 µM; CC50 [14]: > 300 µM |
